Several values for one entry are separate records, joined by “and”; a condition that tells them apart may be missing. Equal values may be shown once.
Key:
Spodoptera frugiperda = test system: Spodoptera frugiperda; parameters: method as in PMID 31157506; conditions: in vivo; cited from earlier work
chiRyR-I4657M/G4819E [1] = target: T1, chiRyR-I4657M/G4819E (Oryctolagus cuniculus, UniProt P11716, C4657M/F4564Y/G4819E/L4792S/R4563K); test: biochemical; assay type: biochemical, rabbit
chiRyR [2] = target: T2, chiRyR (Oryctolagus cuniculus, UniProt P11716, C4657I/F4564Y/L4792S/R4563K); test: cell-based; parameters: species or system rabbit
rRyR1 R4563K = target: T3, rRyR1 R4563K (Oryctolagus cuniculus, UniProt P11716, R4563K); test: time-lapse [Ca2+]ER fluorescence assay, HEK293 cells; assay type: cell-based, rabbit; conditions: n = 3
T3 construct: expressed in transfected cells

rRyR1 = rRyR1 (Oryctolagus cuniculus, UniProt P11716); test: as above; assay type: cell-based, rabbit
rRyR1 L4792S = target: T4, rRyR1 L4792S (Oryctolagus cuniculus, UniProt P11716, L4792S); test: as above; assay type: cell-based, rabbit; conditions: n = 3
T4 construct: expressed in transfected cells

chiRyR-I4657M/G4819E [3] = target: T1, chiRyR-I4657M/G4819E; test: cell-based; parameters: species or system rabbit
Sf RyR = Sf RyR (Spodoptera frugiperda, UniProt A0A4P8L6R5); test: time-lapse [Ca2+]ER fluorescence assay, HEK293 cells; assay type: cell-based
[4] = test system: diamondback moth (Plutella xylostella); conditions: in vivo; cited from earlier work
[5] = test system: Drosophila melanogaster RyR M4758I; test: Bioassay of gene-edited Drosophila melanogaster (feeding, mortality after 24 h); assay type: in vivo; conditions: 24 h feeding, n = 30
Sf RyR_I4734M/G4891E = Sf RyR_I4734M/G4891E (Spodoptera frugiperda, UniProt A0A4P8L6R5, G4891E/I4734M); test: cell-based
chiRyR [6] = target: T2, chiRyR; test: biochemical; assay type: biochemical, rabbit
rRyR1 C4657I = target: T5, rRyR1 C4657I (Oryctolagus cuniculus, UniProt P11716, C4657I); test: time-lapse [Ca2+]ER fluorescence assay, HEK293 cells; assay type: cell-based, rabbit; conditions: n = 3
T5 construct: expressed in transfected cells

[7] = test system: Drosophila melanogaster RyR G4915E; test: Bioassay of gene-edited Drosophila melanogaster (feeding, mortality after 24 h); assay type: in vivo; parameters: key to LD50: AA.: All alive

In the case of `Cc1cc(C(F)(C(F)(F)F)C(F)(F)F)ccc1NC(=O)c1cccc(I)c1C(=O)NC(C)(C)CS(C)(=O)=O` [FLU, flubendiamide], the fold decreased sensitivity (Spodoptera frugiperda) is given as 5,400 fold, the “[3H]ryanodine binding (B/Bmax)” value (chiRyR-I4657M/G4819E [1]; FLU 10.000 uM) is given as 0.017 and 0.021 and 0.023 and 0.012 and the “effect of the double mutation on activity” value (chiRyR-I4657M/G4819E [1]; [3H]ryanodine binding assay) is given as “almost completely abolished”. For the same molecule, the EC50 (chiRyR [2]) was 25.1 nM, the F/F0 (chiRyR [2]; FLU 1e-5 uM) was 0.9549 and 0.9506 and 0.9676 and the F/F0 (chiRyR [2]; FLU 0.0001 uM) was 0.9787 and 0.9683 and 0.9464. The F/F0 (chiRyR [2]; FLU 0.01 uM) was 0.8614 and 0.8526 and 0.8697, the F/F0 (chiRyR [2]; FLU 0.1 uM) was 0.4361 and 0.3436 and the F/F0 (chiRyR [2]; FLU 1 uM) was 0.3549 and 0.3294 and 0.3747. For the same molecule, the F/F0 (chiRyR [2]; FLU 10 uM) was 0.336 and 0.3416 and 0.3434, the F/F0 (chiRyR [2]; FLU 50 uM) was 0.3259 and 0.3223 and 0.3318 and the F/F0 (chiRyR [2]; FLU 100 uM) was 0.36 and 0.3376 and 0.3503. The EC50 (rRyR1 R4563K) was 3900 nM, the EC50 (rRyR1) was 4500 nM and the F/F0 (rRyR1; FLU 0.01 uM) was 0.9514 and 0.951 and 0.9574. For the same molecule, the F/F0 (rRyR1; FLU 0.3 uM) was 0.9294 and 0.929 and 0.9697, the F/F0 (rRyR1; FLU 1 uM) was 0.9591 and 0.9606 and 0.9686 and the F/F0 (rRyR1; FLU 3 uM) was 0.9637 and 0.9616 and 0.9316. The F/F0 (rRyR1; FLU 10 uM) was 0.9738 and 0.9803 and 0.9687, the F/F0 (rRyR1; FLU 30 uM) was 0.9272 and 0.9023 and 0.8951 and the F/F0 (rRyR1; FLU 100 uM) was 0.8351 and 0.825 and 0.8009. For the same molecule, the F/F0 (rRyR1; FLU 150 uM) was 0.7879 and 0.7717 and 0.7578, the EC50 (rRyR1 L4792S) was 209 nM and the F/F0 (chiRyR-I4657M/G4819E [3]; FLU 1e-5 uM) was 0.9575 and 0.97 and 0.9884. The F/F0 (chiRyR-I4657M/G4819E [3]; FLU 0.1 uM) was 0.9705 and 0.977 and 1.0074, the F/F0 (chiRyR-I4657M/G4819E [3]; FLU 0.5 uM) was 0.9668 and 0.9819 and 0.9464 and the F/F0 (chiRyR-I4657M/G4819E [3]; FLU 1 uM) was 0.9823 and 0.9988 and 0.9262. For the same molecule, the F/F0 (chiRyR-I4657M/G4819E [3]; FLU 10 uM) was 0.9522 and 0.929 and 0.9507, the F/F0 (chiRyR-I4657M/G4819E [3]; FLU 50 uM) was 0.9714 and 0.9397 and 0.895 and the F/F0 (chiRyR-I4657M/G4819E [3]; FLU 100 uM) was 0.9721 and 0.9871 and 0.9807. For the same molecule, the F/F0 (chiRyR-I4657M/G4819E [3]; FLU 200 uM) was 0.9521 and 0.9361 and 0.9719, the “effect of the double mutation on activity” value (chiRyR-I4657M/G4819E [3]; time-lapse assay) was “almost completely abolished” and the F/F0 (Sf RyR; FLU 1e-5 uM) was 0.9517 and 0.959 and 0.9803 and 0.9606 and 0.9626 and 0.9095. The F/F0 (Sf RyR; FLU 0.0001 uM) was 0.9669 and 0.9979 and 0.9587, the F/F0 (Sf RyR; FLU 0.001 uM) was 0.9934 and 1.004 and 1.015 and 1.0081 and 0.9724 and 0.9466 and the F/F0 (Sf RyR; FLU 0.005 uM) was 0.9953 and 0.9503 and 0.9362. The F/F0 (Sf RyR; FLU 0.01 uM) was 0.964 and 0.9628 and 0.9439 and 0.9365 and 0.909 and 0.8287, the F/F0 (Sf RyR; FLU 0.1 uM) was 0.6874 and 0.7084 and 0.7834 and 0.606 and 0.5494 and 0.4561 and the F/F0 (Sf RyR; FLU 0.3 uM) was 0.3286 and 0.3161 and 0.2878. For the same molecule, the F/F0 (Sf RyR; FLU 0.5 uM) was 0.3948 and 0.4026 and 0.4259 and 0.3563 and 0.3618 and 0.3874, the F/F0 (Sf RyR; FLU 1 uM) was 0.4531 and 0.5278 and 0.593 and 0.346 and 0.3891 and 0.3741 and the F/F0 (Sf RyR; FLU 3 uM) was 0.282 and 0.3083 and 0.312. For the same molecule, the F/F0 (Sf RyR; FLU 30 uM) was 0.2907 and 0.2708 and 0.2786, the F/F0 (Sf RyR; FLU 50 uM) was 0.5223 and 0.4644 and 0.4746 and 0.282 and 0.2723 and 0.2725 and the F/F0 (Sf RyR; FLU 100 uM) was 0.3008 and 0.2711 and 0.266. The F/F0 (Sf RyR; FLU 150 uM) was 0.2772 and 0.2807 and 0.3032, the F/F0 (Sf RyR; FLU 200 uM) was 0.2827 and 0.3427 and 0.3531 and the EC50 (Sf RyR; n = 3, read-out: EC50) was 59.3 nM. For the same molecule, the “fold decrease in sensitivity” value [4] was > 200 fold, the LD50 [5] was 10.4 µM and the EC50 (Sf RyR_I4734M/G4891E) was > 300000 nM. The F/F0 (Sf RyR_I4734M/G4891E; FLU 0.1 uM) was 0.9354 and 1.022 and 1.001, the F/F0 (Sf RyR_I4734M/G4891E; FLU 1 uM) was 1.08 and 0.9898 and 1.013 and the F/F0 (Sf RyR_I4734M/G4891E; FLU 10 uM) was 0.9775 and 0.9916 and 0.9858. The F/F0 (Sf RyR_I4734M/G4891E; FLU 50 uM) was 0.9682 and 0.9415 and 0.9568, the F/F0 (Sf RyR_I4734M/G4891E; FLU 100 uM) was 0.9687 and 0.9673 and 0.985 and the F/F0 (Sf RyR_I4734M/G4891E; FLU 150 uM) was 1.01 and 0.9761 and 1.006. The F/F0 (Sf RyR_I4734M/G4891E; FLU 200 uM) was 1.016 and 0.9681 and 1.012, the EC50 (chiRyR [6]) was 4 ± 1.4 nM and the “[3H]ryanodine binding (B/Bmax)” value (chiRyR [6]; FLU 0.010 uM) was 0.258 and 0.168 and 0.293 and 0.246. For the same molecule, the “[3H]ryanodine binding (B/Bmax)” value (chiRyR [6]; FLU 0.100 uM) was 0.203 and 0.262 and 0.293 and 0.332, the “[3H]ryanodine binding (B/Bmax)” value (chiRyR [6]; FLU 1.000 uM) was 0.230 and 0.187 and 0.324 and the “[3H]ryanodine binding (B/Bmax)” value (chiRyR [6]; FLU 10.000 uM) was 0.281 and 0.305 and 0.277 and 0.254. For the same molecule, the “[3H]ryanodine binding (B/Bmax)” value (chiRyR [6]; FLU 100.000 uM) was 0.242 and 0.340 and 0.234 and 0.262, the EC50 (rRyR1 C4657I) was 8900 nM and the LD50 ([7]; 24 h feeding, n = 30) was “AA”. The lethality ([7]; in vivo) was “can no longer kill”.
